Data on 45 molecules can be found in patent US12534477B2, “Compound having KHK inhibitory effect” (HANGZHOU ZHONGMEIHUADONG PHARMACEUTICAL CO., LTD., priority 2019, dated 2026).

Series [1] has as its target Recombinant Human Ketohexokinase (KHK) (Homo sapiens (Human), UniProt P50053). Briefly: Ketohexokinase assay (KHK assay), ADP-Glo. It counts as biochemical. On the procedure: • 1. EnVision multilabel reader, Perkin Elmer; • 2. OptiPlate 384-well microplate, Perkin Elmer, Cat. No. 6007290; • 3. Recombinant Human Ketohexokinase (KHK), R&D Cat. No.: 8177-HK-020, Lot No.: DDFK0117092; • 4. Fructose (D(−)-Fructose), SCR Cat. No.: 36003034; and • 5. ADP-Glo kinase assay kit, Promega_Cat. No.: V9101.
1. preparation of Dilution Buffer containing 50 mM hydroxyethylpiperazine […] (Hepes), 140 mM KCl, 3.5 mM MgCl2, and 0.01% bovine serum albumin (BSA), pH 7.4.
2. A working solution of ketohexokinase at 2.5 times concentration was prepared with Dilution Buffer, with 50 nM ketohexokinase and 12.5 mM fructose.
3. A working solution of adenosine triphosphate (ATP) at 2.5 times concentration was prepared with Dilution Buffer, with a concentration of 250 μM.
4. Each compound was diluted starting at a concentration of 500 μM, 3-fold diluted for 9 concentration points. The final concentration of the compound in the reaction system started from 10 μM and the final concentration of dimethyl sulfoxide (DMSO) was 2%.
5. A 96-well plate was prepared as a reaction plate, and was incubated at room temperature for 5 min after adding 6 μL ketohexokinase working solution at 2.5 times concentration to each well and further adding 3 μL compound working solution to each well.
6. The first well of each row was a positive control for a compound, i.e. the same volume of the buffer was added to replace the compound and ketohexokinase. The last well was a negative control for the compound, i.e. the same volume of Dilution Buffer was added instead of the compound.
7. 6 μL ATP working solution was added to each well in a 96-well reaction plate to initiate the kinase reaction. The kinase reaction was incubated in a constant temperature heater at 28° C. for 1 h.
1. A384 plate was prepared as a detection plate, and firstly 5 μL ADP-Glo reagent was added.
2. 5 μL kinase reaction mixture from the reaction plate was added to each well and incubated in a constant temperature heater at 28° C. for 30 min.
3. 10 μL kinase detection reagent was added to each well and incubated in a constant temperature heater at 28° C. for 30 min.
4. The detection plate was placed in an EnVision multilabel reader to read the chemiluminescent signal.
In general terms: ADP-Glo first removes unused ATP, then detects ADP through luciferase.

The subject of series [2] is fructose metabolism in mice. The series can be described thus: Acute fructose feeding experiment in mice. The class given is in vivo. To be noted: compound 30 mpk, oral fructose 1 g/kg. The method, then:
The effect of test compounds on the fructose content in mice with high fructose intake was investigated.
All animals were acclimated for one week in an animal house, fed with normal chow and fasted for 16 hours before being given fructose.
1) The experiment began at −0.5 hr. A control group was given a certain volume of vehicle (a certain proportion of methylcellulose and Tween 80 in water), and an experimental group was given a certain dose of a solution of the compound (the administered volume was consistent with the vehicle).
2) 0.5 hour later and before administration of a fructose solution, a blood sample was collected at 0 hr, followed by oral administration of 1 g/kg of an aqueous fructose solution.
3) After the administration of fructose, blood samples were collected from saphenous vein of mice at 0.25, 0.5, 1, 2, 3 and 8 hr, and fructose concentration was analyzed by LC-MS/MS.

A short description of series [3]: Liver-blood ratio, tissue distribution in rats. The class given is in vivo, SD rats. To be noted: SD, rat, 1 mg/kg, PO 1 mpk. On the procedure:
Tissue distribution of compounds in SD rats was tested.
In the experiment, candidate compounds were formulated as clear solutions and administered to rats in a single oral dose (PO, 1 mpk). The vehicle for oral administration was a certain proportion of methylcellulose and Tween 80 in water. Whole blood was collected at a certain time and plasma was prepared, and tissues were collected at the corresponding time and prepared into tissue homogenates. Drug concentration was analyzed by LC-MS/MS, and pharmacokinetic parameters were calculated by Phoenix WinNonlin software.

Like-named read-outs stand apart in the source and are kept apart here.

Recombinant Human Ketohexokinase (KHK), sequence (P50053 whole entry): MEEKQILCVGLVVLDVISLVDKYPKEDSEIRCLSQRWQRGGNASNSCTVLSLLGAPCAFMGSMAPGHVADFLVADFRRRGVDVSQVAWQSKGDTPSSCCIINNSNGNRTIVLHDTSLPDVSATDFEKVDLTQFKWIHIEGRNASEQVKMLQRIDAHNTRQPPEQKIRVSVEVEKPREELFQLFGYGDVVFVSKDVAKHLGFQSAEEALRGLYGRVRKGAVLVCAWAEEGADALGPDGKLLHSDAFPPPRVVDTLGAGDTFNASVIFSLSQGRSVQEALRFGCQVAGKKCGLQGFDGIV

Take `C[C@H]1CCN1c1nc(N2CC3(CC3C(=O)O)C2)c2ccsc2n1` (stereo partly shown) [WX009]: the IC50 in series [1] was found to be 100 nM.
As for `C[C@H]1CCN1c1nc(N2CC3(C[C@H]3CC(=O)O)C2)c2cc(Cl)sc2n1` [WX057], in series [1], the IC50 amounted to 200 nM.
Consider `C[C@H]1CCN1c1nc(-c2cncc(CCC(=O)O)c2)c2ccsc2n1` [WX048], for which the IC50 in series [1] was 92 nM.
Same read-out and setting: the figure for `C[C@H]1CCN1c1nc(-c2ccc(CC(=O)O)c(F)c2)c2ccsc2n1` [WX022] is 200 nM; for `C[C@H]1CCN1c1nc(N2CC3(C[C@H]3C(=O)O)C2)c2cccc(F)c2n1` [WX040] it is 320 nM; for `C[C@H]1CCN1c1nc2c(c(N3C[C@@H]4[C@@H](CC(=O)O)[C@@H]4C3)n1)CSC2` [WX021] it is 160 nM.
Consider `C[C@H]1CCN1c1nc(N2C[C@@H]3[C@@H](CC(=O)O)[C@@H]3C2)c2scnc2n1` [WX002], for which the half-maximal inhibitory concentration (IC50) in series [1] was determined as 190 nM.
With `C[C@H]1CCN1c1nc(Nc2ccc(CC(=O)O)cc2)c2ncsc2n1` [WX003], in series [1], the IC50 is 110 nM.
Regarding `C[C@H]1CCN1c1nc(-c2cccc(CCC(=O)O)n2)c2ccsc2n1` [WX047], the IC50 in series [1] came out at 630 nM.
On to `C[C@H]1CCN1c1nc(N2CC(CC(=O)O)C2)c2ccsc2n1` [WX018], for which the IC50 in series [1] is 390 nM.
As to `C[C@H]1CCN1c1nc(N2C[C@@H]3[C@@H](CC(=O)O)[C@@H]3C2)c2cc(Cl)sc2n1` [WX029], in series [2], the “AUC of integral fructose concentration for dosed group” value (“AUC … for dosed group” for short) was 1687 nM·h and the “AUC of integral fructose concentration of dosed group/AUC of Integral fructose concentration of control group” value was determined as 15.1. Also, in series [1], the IC50 turned out to be 28 nM.
As for `C[C@H]1CCN1c1nc(N2CC3(C[C@@H]3CC(=O)O)C2)c2ccsc2n1` [WX054], in series [1], the IC50 is 1000 nM.
Consider `C[C@H]1CCN1c1nc(-c2cccc(CCC(=O)O)c2)c2ccsc2n1` [WX016], for which the IC50 in series [1] was determined as 32 nM.
As to `C[C@H]1CCN1c1nc(-c2ccnc(CCC(=O)O)c2)c2ccsc2n1` [WX033], the IC50 in series [1] was determined as 71 nM.
With `C[C@H]1CCN1c1nc(N2CCC3(CC3C(=O)O)C2)c2ccsc2n1` (stereo partly shown) [WX027], the IC50 in series [1] worked out at 250 nM.
`C[C@H]1CCN1c1nc(N2C[C@@H]3[C@@H](CC(=O)O)[C@@H]3C2)c2sccc2n1` [WX046]: the IC50 in series [1] was 700 nM.
Take `C[C@H]1CCN1c1nc(NC2CC3(C2)CC3C(=O)O)c2cc(Cl)sc2n1` (stereo partly shown) [WX051]: in series [1], the IC50 worked out at 69 nM.
Consider `C[C@H]1CCN1c1nc(N2C[C@@H]3[C@@H](CC(=O)O)[C@@H]3C2)c2c(F)csc2n1` [WX030], for which, in series [2], the “AUC … for dosed group” value was 1029 nM·h and the “AUC of integral fructose concentration of dosed group/AUC of Integral fructose concentration of control group” value turned out to be 9.2. Further, in series [1], the 50% inhibitory concentration (IC50) turned out to be 31 nM.
Consider `C[C@H]1CCN1c1nc(N2CC3(CC3C(=O)O)C2)c2cccc(F)c2n1` (stereo partly shown) [WX034], for which, in series [1], the concentration for half-maximal inhibition (IC50) was found to be 110 nM.
As to `C[C@H]1CCN1c1nc(N2CC3(C[C@@H]3CC(=O)O)C2)c2cc(Cl)sc2n1` [WX056], in series [1], the IC50 is 360 nM.
On to `C[C@H]1CCN1c1nc(N2CC3(C2)CC3(C)C(=O)O)c2cc(Cl)sc2n1` (stereo partly shown) [WX049], for which, in series [1], the IC50 was 210 nM.
Same read-out and setting: the figure for `C[C@H]1CCN1c1nc(N2C[C@@H]3[C@@H](CC(=O)O)[C@@H]3C2)nc2ncsc12` [WX005] is 650 nM.
In the case of `C[C@H]1CCN1c1nc(N2CC3(C[C@H]3C(=O)O)C2)c2ccsc2n1` [WX019], in series [2], the “AUC … for dosed group” value stood at 849 nM·h and the “AUC of integral fructose concentration of dosed group/AUC of Integral fructose concentration of control group” value is recorded as 6.1. In addition, the IC50 in series [1] is 110 nM.
Consider `C[C@H]1CCN1c1nc(Nc2ccc(CC(=O)O)c(F)c2)c2ccsc2n1` [WX010], for which the IC50 in series [1] worked out at 15 nM.
The same measure, in the same setting: the figure for `C[C@H]1CCN1c1nc(N2CC3(C[C@@H]3C(=O)O)C2)c2cc(Cl)sc2n1` [WX045] is 30 nM; for `C[C@H]1CCN1c1nc(N2CC3(CC3C(=O)O)C2)c2cc(Cl)sc2n1` (stereo partly shown) [WX036] it is 69 nM.
As for `C[C@H]1CCN1c1nc(N2CC3(C[C@H]3CC(=O)O)C2)c2ccsc2n1` [WX055], the IC50 in series [1] turned out to be 650 nM.
Same read-out and setting: the figure for `C[C@H]1CCN1c1nc(N2CC[C@H](CC(=O)O)C2)c2ccsc2n1` [WX025] is 240 nM; for `C[C@H]1CCN1c1nc(-c2cccc(/C=C/C(=O)O)c2)c2ccsc2n1` [WX017] it is 20 nM.
Turning to `C[C@H]1CCN1c1nc(N2CC3(C[C@@H]3C(=O)O)C2)c2ccsc2n1` [WX020], in series [2], the “AUC … for dosed group” value was determined as 1180 nM·h and the “AUC of integral fructose concentration of dosed group/AUC of Integral fructose concentration of control group” value came out at 8.5. The IC50 in series [1] came to 130 nM.
For the molecule `C[C@H]1CCN1c1nc(N2C[C@@H]3[C@@H](CC(=O)O)[C@@H]3C2)c2scc(C#N)c2n1` [WX023], in series [1], the IC50 stood at 210 nM.
On to `C[C@H]1CCN1c1nc(N2CC3(CCC3C(=O)O)C2)c2cc(Cl)sc2n1` (stereo partly shown) [WX038], for which, in series [1], the IC50 was determined as 480 nM.
As for `C[C@H]1CCN1c1nc(N2C[C@@H]3[C@@H](CC(=O)O)[C@@H]3C2)c2cc(F)sc2n1` [WX028], the IC50 in series [1] turned out to be 50 nM.
Consider `Cc1csc2nc(N3CC[C@@H]3C)nc(N3C[C@@H]4C(CC(=O)O)[C@@H]4C3)c12` (stereo partly shown) [WX008], for which the IC50 in series [1] is 210 nM.
In the case of `C[C@H]1CCN1c1nc(Nc2cc(F)c(CC(=O)O)c(F)c2)c2ccsc2n1` [WX014], the IC50 in series [1] was determined as 14 nM.
In the case of `C[C@H]1CCN1c1nc2c(c(N3C[C@@H]4[C@@H](CC(=O)O)[C@@H]4C3)n1)CCS2` [WX026], in series [2], the “AUC … for dosed group” value came to 993 nM·h and the “AUC of integral fructose concentration of dosed group/AUC of Integral fructose concentration of control group” value was 8.9. The IC50 in series [1] was 91 nM.
Consider `C[C@H]1CCN1c1nc(N2CC3(C[C@H]3C(=O)O)C2)c2cc(Cl)sc2n1` [WX044], for which the IC50 in series [1] was 81 nM.
`C[C@H]1CCN1c1nc(N2CC3(CC3C(=O)O)C2)c2cccc(Cl)c2n1` (stereo partly shown) [WX050]: the IC50 in series [1] worked out at 260 nM.
As for `Cc1csc2nc(N3CC[C@@H]3C)nc(Nc3ccc(CC(=O)O)cc3)c12` [WX007], in series [1], the concentration for half-maximal inhibition (IC50) came out at 16 nM.
For `C[C@H]1CCN1c1nc(Nc2ccc(C(=O)O)c(C#N)c2)c2ccsc2n1` [WX011], the 50% inhibitory concentration (IC50) in series [1] is 17 nM.
Turning to `C[C@H]1CCN1c1nc(Nc2ccc(C(=O)O)cc2)c2ccsc2n1` [WX012], in series [1], the IC50 worked out at 9.4 nM. For the same molecule, the concentration at 1.5 h in series [3] (liver, 1.5 h, read-out: Liver tissue concentration) is 2100 nM; in series [3] (plasma, 1.5 h, read-out: Plasma concentration), 810 nM. In addition, the concentration at 2 h in series [3] (liver, 2.0 h, read-out: Liver tissue concentration) was 618 nM; in series [3] (plasma, 2.0 h, read-out: Plasma concentration), 273 nM. For the same molecule, the concentration at 6 h in series [3] (liver, 6.0 h, read-out: Liver tissue concentration) is 634 nM; in series [3] (plasma, 6.0 h, read-out: Plasma concentration), 145 nM. Moreover, the Kp at 1.5 h in series [3] (liver/plasma, 1.5 h, read-out: Liver-blood ratio) turned out to be 2.62. Moreover, the Kp at 2 h in series [3] (liver/plasma, 2.0 h, read-out: Liver-blood ratio) stood at 2.32. For the same molecule, the Kp at 6 h in series [3] (liver/plasma, 6.0 h, read-out: Liver-blood ratio) turned out to be 4.39.
For the molecule `C[C@H]1CCN1c1nc(Nc2cc(F)c(C(=O)O)c(F)c2)c2ccsc2n1` [WX015], in series [1], the IC50 amounted to 6.7 nM.
`C[C@H]1CCN1c1nc(-c2cncc(OCC(=O)O)c2)c2ccsc2n1` [WX039]: the IC50 in series [1] stood at 36 nM.
Turning to `C[C@H]1CCN1c1nc(NC2CC(C(=O)O)C2)c2ccsc2n1` (stereo partly shown) [WX032], the IC50 in series [1] is 150 nM.
Consider `C[C@H]1CCN1c1nc(N2CC3(CC3C(=O)O)C2)c2c(F)csc2n1` (stereo partly shown) [WX037], for which the IC50 in series [1] was found to be 150 nM.

In general, IC50 refers to the concentration that inhibits the measured activity by half.
